According to US20080317769A1, “Vaccine Composition Comprising Alpha-Galactosylceramide as an Adjuvant For Intranasal Administration” (priority 2005, published 2008):

What was measured:
[1] = molecular target: T1, CD1d (Mus musculus, UniProt P11609); assay: Systemic IgG and in vivo CTL activity in wild type versus CD1d−/− C57BL/6 mice; details: CD1d−/− vs wild type C57BL/6 mice; OVA + αGalCer intranasal three times at one-week intervals
T1 construct: host or cells: antigen presenting cells of living C57BL/6 mice (in vivo)
T1 sequence (P11609 22-336): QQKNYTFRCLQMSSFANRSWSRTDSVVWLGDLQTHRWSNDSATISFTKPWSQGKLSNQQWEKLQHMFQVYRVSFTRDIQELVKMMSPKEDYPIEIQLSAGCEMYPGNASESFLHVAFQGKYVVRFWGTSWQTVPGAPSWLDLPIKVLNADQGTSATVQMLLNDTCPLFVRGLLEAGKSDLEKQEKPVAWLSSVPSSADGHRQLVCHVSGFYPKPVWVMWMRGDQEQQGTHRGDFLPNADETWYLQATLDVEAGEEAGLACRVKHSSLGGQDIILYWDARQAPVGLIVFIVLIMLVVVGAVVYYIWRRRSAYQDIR
T1 sequence (P01887 21-119 partner): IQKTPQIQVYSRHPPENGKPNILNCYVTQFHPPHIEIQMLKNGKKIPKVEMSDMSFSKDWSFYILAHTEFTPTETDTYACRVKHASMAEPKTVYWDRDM
Protocol: To investigate whether the immune responses induced by αGalCer were mediated by CD1d, NKT deficient (resulted from the lack of CD1d) CD1d−/− C57BL/6 mice (Charles River Lab., Orient Co. Ltd., Korea) were used for the experiment (Park et al., J. Exp. Med., 193: 893, 2001). On the first week of the final intranasal administration, systemic IgG level in serum and in vivo CTL activity were measured in both wild type and CD1d−/− C57BL/6 mice by the same manner as described in Example 1 and Example 3.

[2] = tested on: live PR8 virus; assay: Plaque assay of live PR8 virus in the lung wash after 20 LD50 challenge; type: in vivo; details: Balb/c mice; 10 μg inactivated PR8 + αGalCer intranasal; three days after 20 LD50 live PR8
Protocol: To examine the role of αGalCer as an adjuvant of a killed virus, influenza virus A/PR/8/34 (PR8), which was inactivated with formalin, was used as an antigen to examine the anti-virus immune response. Balb/c mice were immunized with indicated amounts (1 μg, 10 μg) of inactivated PR8 alone or together with αGalCer by the intranasal administration twice at two-week intervals. Two weeks after the final immunization, the mice were sacrificed and following experiments were performed.
Immunized mice were infected with 20 LD50 of live PR8 virus and sacrificed three days later to obtain the lung wash. The amounts of live PR8 virus in the lung wash were measured by plaque assay. Particularly, MDCK cells (purchased from ATCC) were cultured in a 6 well plate at the density of 95-100%. The lung wash was 10-fold diluted by using a medium serially, which was added to the plate, followed by infection for one hour. Then, the lung wash was eliminated. An agarose containing medium was added thereto, followed by further culture in a CO2 incubator for 2-3 days. The numbers of plaques formed therein were counted with the naked eye.

[3] = tested on: OVA-specific antibody responses; assay: OVA-specific antibody responses after intranasal co-administration of OVA and αGalCer, Balb/c mice; type: in vivo
Protocol: To investigate whether αGalCer can be used as a strong adjuvant for a nasal vaccine in Balb/c mice, different amounts of αGalCer (0.15, 0.5, 2.0 μg) and 100 μg of OVA were intranasally administered to Balb/c mice by the same manner as described in Example 1, followed by measurement of OVA-specific IgG, OVA-specific IgG1 and IgG2a in serum and OVA-specific IgA responses in the nasal wash and the lung wash.

[4] = αGalCer (0.15, 0.5, 2.0 μg) + 100 μg OVA intranasal, vs vehicle alone or OVA alone

## CCCCCCCCCCCCCCCCCCCCCCCCCC(=O)N[C@@H](CO[C@H]1O[C@H](CO)[C@H](O)[C@H](O)[C@H]1O)[C@H](O)[C@H](O)CCCCCCCCCCCCCC [αGalCer, alpha-galactosylceramide]
[1]
  CTL lytic activity in draining lymph node and systemic lymphoid organs of CD1d−/− mice: inhibited
  systemic IgG antibody response in CD1d−/− mice: significantly inhibited
[2]
  plaques of live PR8 virus in the lung wash: no plaque was observed
[3]; 0.5 μg of αGalCer intranasally coadministered with OVA
  IgG antibody level in serum, comparison of αGalCer doses: highest level of IgG antibody
[3]; [4]
  OVA-specific IgA responses in the nasal wash and the lung wash: higher OVA-specific IgA responses
  OVA-specific IgG response in serum: higher OVA-specific IgG response
[3]; αGalCer + OVA intranasal, serum
  OVA-specific IgG1 and IgG2a titers: increases
